Reference: US10316017B2, “COT modulators and methods of use thereof” (Gilead Sciences, Inc., priority 2015, dated 2019)

What follows are compounds tested against T1, human Cot catalytic domain (30-397 amino acids) (Homo sapiens, UniProt P41279) (assay: High Throughput Cot Biochemical Assay (KinEASE TR-FRET)). Settings: Cot KinEASE TR-FRET (HTRF) biochemical assay, 400 μM ATP; read-out: IC50 HTRF.
T1 construct: Purified recombinant human Cot catalytic domain (30-397 amino acids) was purchased from Cama Biosciences; purchased Cama Biosciences (so in the source)
How it was run: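 Recombinant human Cot catalytic domain (aa 30-397), 5 nM, with 1 μM STK3 peptide and 400 μM ATP in MOPS pH 7.0 buffer with MgOAc, DTT, BSA, NP-40, glycerol, 0.1% DMSO. Phosphorylated XL665-peptide detected by Eu-[…] antibody TR-FRET.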

T1 sequence (P41279 30-397): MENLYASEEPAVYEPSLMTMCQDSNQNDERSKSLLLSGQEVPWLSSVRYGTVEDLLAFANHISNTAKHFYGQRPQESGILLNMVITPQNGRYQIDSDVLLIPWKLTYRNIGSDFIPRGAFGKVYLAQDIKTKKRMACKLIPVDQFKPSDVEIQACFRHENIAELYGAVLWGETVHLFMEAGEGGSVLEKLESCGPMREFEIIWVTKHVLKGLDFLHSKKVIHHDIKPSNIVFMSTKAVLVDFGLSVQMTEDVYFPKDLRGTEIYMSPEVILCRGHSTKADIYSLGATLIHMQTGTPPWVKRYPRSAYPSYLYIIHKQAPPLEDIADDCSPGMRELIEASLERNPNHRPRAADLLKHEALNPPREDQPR

IC50 [µM] | Structure (SMILES)
0.81 | [2H][C@](Nc1cc(Cl)c2ncc(C#N)c(N[C@H](CC)c3ccccc3)c2c1)(c1cccc(C#N)c1)c1cnnn1C1CC1 [Compound 37]

Same assay, conditions: Cot biochemical HTRF (KinEASE TR-FRET) assay; read-out: IC50 HTRF

IC50 [µM] | Structure (SMILES)
0.092 | N#Cc1cnc2c(Cl)cc(N[C@H](c3cn(C4COC4)nn3)c3c(F)cc(F)cc3F)cc2c1Nc1cnc(F)c(F)c1 [Example 500, (S)-8-chloro-4-((5,6-difluoropyridin-3-yl)amino)-6-(((1-(oxetan-3-yl)-1H-1,2,3-triazol-4-yl)(2,4,6-trifluorophenyl)methyl)amino)quinoline-3-carbonitrile]
0.008 | N#Cc1cnc2c(Cl)cc(N[C@@H](c3ccccc3)c3cn(CCN4CCCC4)nn3)cc2c1Nc1ccc(F)c(Cl)c1 [Example 546, (S)-8-chloro-4-((3-chloro-4-fluorophenyl)amino)-6-((phenyl (1-(2-(pyrrolidin-1-yl)ethyl)-1H-1,2,3-triazol-4-yl)methyl)amino)quinoline-3-carbonitrile]

Each compound was assayed on TNFα production in LPS-stimulated human monocytes (assay: Cot Monocyte TNFα Cell Based Assay). Settings: Homo sapiens, Monocyte, LPS-stimulated human monocytes, TNFα TR-FRET; read-out: EC50 TNF.
Protocol: Example 60: Cot Monocyte TNFα Cell Based Assay
The cell suspension was then plated at a density of 5,000 cells/well onto black 384 well Greiner clear bottom plates. Plates were pre-spotted with test compounds and serially diluted in DMSO where 200 nL/well were delivered using the Echo 550 acoustic liquid dispenser (Labcyte®) for a final DMSO concentration of 0.5%. Plated cells were treated with compound for 1 hour at 37° C. Cells were then stimulated with 50 pg/ml of LPS (Sigma) excluding outside columns of plate used for unstimulated cell control wells. Cells were incubated for an additional 4 hours at 37° C. Cells were then spun out of the media and 5 ul of sample were taken and analyzed for total TNFα content using the TR-FRET Human TNFα detection system (CisBio). This system utilizes two labeled antibodies (cryptate and XL665) that bind to two different epitopes of the TNFα molecule and produce FRET signal proportional to the concentration of TNFα in the sample. Detection antibodies are mixed 50:50 and 5 μL were dispensed into each well. Plates were covered with clear seals and incubated at room temp overnight. […] Percent of control was calculated as follows: % Control=100×(RatioSample−Ratio0% stimulation)/(Ratio100% Stimulation−Ratio0% Stimulation) where unstimulated cells (0% stimulation) were the negative control and stimulated cells (100% stimulation) were used as the positive control.

EC50 [µM] | Structure (SMILES)
0.505 | [2H][C@](Nc1cc(Cl)c2ncc(C#N)c(N[C@H](CCS(C)(=O)=O)c3ccccc3)c2c1)(c1ccc(F)cc1)c1cn(C2CC2)nn1 [Example 932, 8-chloro-6-(((1-cyclopropyl-1H-1,2,3-triazol-4-yl)(4-fluorophenyl)methyl-d)amino)-4-(((R)-3-(methylsulfonyl)-1-phenylpropyl)amino)quinoline-3-carbonitrile]
0.314 | CC(C)(C)CNc1c(C#N)cnc2c(Cl)cc(N[C@@H](c3ccccc3)c3cn(C4(C(F)F)CC4)nn3)cc12 [Example 1058, (S)-8-chloro-6-(((1-(1-(difluoromethyl)cyclopropyl)-1H-1,2,3-triazo1-4-yl)(phenyl)methyl)amino)-4-(neopentylamino)quinoline-3-carbonitrile]
0.188 | Cc1cc(C#N)ccc1[C@H](Nc1cc(Cl)c2ncc(C#N)c(NCC(C)(C)C)c2c1)c1cn(C2(C(F)(F)F)CC2)nn1 [Example 1099, (S)-8-chloro-6-(((4-cyano-2-methylphenyl)(1-(1-(trifluoromethyl)cyclopropyl)-1H-1,2,3-triazol-4-yl)methyl)amino)-4-(neopentylamino)quinoline-3-carbonitrile]

Same assay, conditions: Homo sapiens, Monocyte, TNFα in LPS-stimulated human monocytes; read-out: EC50 TNF

EC50 [µM] | Structure (SMILES)
> 1 | [2H][C@](Nc1cc(Cl)c2ncc(C#N)c(N[C@H](CC)c3ccccc3)c2c1)(c1cccc(C#N)c1)c1cnnn1C1CC1 [Compound 37]
2.16 | N#Cc1cnc2c(Cl)cc(N[C@H](c3cn(C4COC4)nn3)c3c(F)cc(F)cc3F)cc2c1Nc1cnc(F)c(F)c1 [Example 500, (S)-8-chloro-4-((5,6-difluoropyridin-3-yl)amino)-6-(((1-(oxetan-3-yl)-1H-1,2,3-triazol-4-yl)(2,4,6-trifluorophenyl)methyl)amino)quinoline-3-carbonitrile]
0.2 | N#Cc1cnc2c(Cl)cc(N[C@@H](c3ccccc3)c3cn(CCN4CCCC4)nn3)cc2c1Nc1ccc(F)c(Cl)c1 [Example 546, (S)-8-chloro-4-((3-chloro-4-fluorophenyl)amino)-6-((phenyl (1-(2-(pyrrolidin-1-yl)ethyl)-1H-1,2,3-triazol-4-yl)methyl)amino)quinoline-3-carbonitrile]
1.26 | CC(C)n1cc([C@@H](Nc2cc(Cl)c3ncc(C#N)c(Nc4ccc(F)c(Cl)c4)c3c2)c2cccc(COCCN(C)C)c2)nn1 [Compound 40]
1.97 | CC(C)(C)N1CCC(n2cc([C@@H](Nc3cc(Cl)c4ncc(C#N)c(Nc5ccc(F)c(Cl)c5Cl)c4c3)c3ccc(Cl)cc3)nn2)CC1 [Example 665, (S)-6-(((1-(1-(tert-butyl)piperidin-4-yl)-1H-1,2,3-triazol-4-yl)(4-chlorophenyl)methyl)amino)-8-chloro-4-((2,3-dichloro-4-fluorophenyl)amino)quinoline-3-carbonitrile]
1.23 | Cc1ccccc1[C@H](Nc1cc(Cl)c2ncc(C#N)c(Nc3cnc(F)c(F)c3)c2c1)c1c[nH]nn1 [Example 396, (S)-8-chloro-4-((5,6-difluoropyridin-3-yl)amino)-6-((o-tolyl(1H-1,2,3-triazol-4-yl)methyl)amino)quinoline-3-carbonitrile]
0.734 | N#Cc1cnc2c(Cl)cc(N[C@@H](c3ccccc3)c3c[nH]nn3)cc2c1Nc1cnc(F)c(F)c1 [Example 582, (S)-8-chloro-4-((5,6-difluoropyridin-3-yl)amino)-6-((phenyl(1H-1,2,3-triazol-4-yl)methyl)amino)quinoline-3-carbonitrile]
0.308 | CC[C@@H](Nc1c(C#N)cnc2c(Cl)cc(N[C@@H](c3ccc(F)cc3)c3cn(-c4ccccc4)nn3)cc12)c1ccccc1 [Example 392, 8-chloro-6-(((S)-(4-fluorophenyl)(1-phenyl-1H-1,2,3-triazol-4-yl)methyl)amino)-4-(((R)-1-phenylpropyl)amino)quinoline-3-carbonitrile]
0.504 | [2H][C@](Nc1cc(Cl)c2ncc(C#N)c(NCC3(CC)CCC3)c2c1)(c1ccc(F)cc1)c1cn(C2CC2)nn1 [Example 261, (S)-8-chloro-6-(((1-cyclopropyl-1H-1,2,3-triazol-4-yl)(4-fluorophenyl)methyl-d)amino)-4-(((1-ethylcyclobutyl)methyl)amino)quinoline-3-carbonitrile]
1.53 | CC(C)(C)N1CCC(n2cc([C@@H](Nc3cc(Cl)c4ncc(C#N)c(Nc5csc(Cl)c5)c4c3)c3ccccc3)nn2)CC1 [Example 641, (S)-6-(((1-(1-(tert-butyl)piperidin-4-yl)-1H-1,2,3-triazol-4-yl)(phenyl)methyl)amino)-8-chloro-4-((5-chlorothiophen-3-yl)amino)quinoline-3-carbonitrile]
1.24 | CC(C)(C)N1CCC(n2cc([C@@H](Nc3cc(Cl)c4ncc(C#N)c(Nc5cccc(Cl)c5)c4c3)c3ccc(Cl)cc3)nn2)CC1 [Example 776, (S)-6-(((1-(1-(tert-butyl)piperidin-4-yl)-1H-1,2,3-triazol-4-yl)(4-chlorophenyl)methyl)amino)-8-chloro-4-((3-chlorophenyl)amino)quinoline-3-carbonitrile]
1.09 | CC(C)(C)N1CCC(n2cc([C@@H](Nc3cc(Cl)c4ncc(C#N)c(Nc5cc(F)c(F)c(Cl)c5)c4c3)c3ccc(Cl)cc3)nn2)CC1 [Example 661, (S)-6-(((1-(1-(tert-butyl)piperidin-4-yl)-1H-1,2,3-triazol-4-yl)(4-chlorophenyl)methyl)amino)-8-chloro-4-((3-chloro-4,5-difluorophenyl)amino)quinoline-3-carbonitrile]
0.426 | [2H][C@](Nc1cc(Cl)c2ncc(C#N)c(NCC3(C)CCOCC3)c2c1)(c1ccc(F)cc1)c1cn(-c2cccnc2)nn1 [Example 332, (S)-8-chloro-6-(((4-fluorophenyl)(1-(pyridin-3-yl)-1H-1,2,3-triazol-4-yl)methyl-d)amino)-4-(((4-methyltetrahydro-2H-pyran-4-yl)methyl)amino)quinoline-3-carbonitrile]
0.311 | N#CCn1cc([C@@H](Nc2cc(Cl)c3ncc(C#N)c(Nc4ccc(F)c(Cl)c4)c3c2)c2ccc(F)cc2)nn1 [Example 815, (S)-8-chloro-4-((3-chloro-4-fluorophenyl)amino)-6-(((1-(cyanomethyl)-1H-1,2,3-triazol-4-yl)(4-fluorophenyl)methyl)amino) quinoline-3-carbonitrile]

Same assay, conditions: Homo sapiens, Monocyte, read-out: EC50 TNF

Structure (SMILES) | EC50 [µM]
[2H][C@](Nc1cc(Cl)c2ncc(C#N)c(NC3CN4CCC3CC4)c2c1)(c1ccc(F)cc1)c1cn(C2CC2)nn1 (stereo partly drawn) [Example 317, 8-chloro-6-(((S)-(1-cyclopropyl-1H-1,2,3-triazol-4-yl)(4-fluorophenyl)methyl-d)amino)-4-(quinuclidin-3-ylamino)quinoline-3-carbonitrile] | 8.26

Same assay, conditions: LPS-stimulated human monocytes, TNFα TR-FRET; read-out: EC50 TNF

EC50 [µM] | Structure (SMILES)
0.254 | CC(C)(C)CNc1c(C#N)cnc2c(Cl)cc(NC(c3cn(C4(CO)CC4)nn3)c3ccccc3Cl)cc12 (centres unmarked) [Example 964, 8-chloro-6-(((2-chlorophenyl) (1-(1-(hydroxymethyl)cyclopropyl)-1H-1,2,3-triazo1-4-yl)methyl-d)amino)-4-(neopentylamino)quinoline-3-carbonitrile]

Same assay, conditions: second value of the cell IC50/EC50; human monocytes, 50 pg/ml LPS, 4 hours

IC50/EC50 [nM]: EC50 (TNFα, monocytes) [nM] | Structure (SMILES)
310 | CCN1CCC(n2cc(CNc3cc(Cl)c4ncc(C#N)c(Nc5ccc(F)c(Cl)c5)c4c3)nn2)CC1 [Comparative Example 1, reference compound]
